Columns and labels:
[1] = system: human histone deacetylase; assay: Expression of human histone deacetylase in oligonucleotide-treated HCT116 cells, by Western blotting; format: cell-based; conditions: oligonucleotide 10 μM once per day for seven days
Description: The cell line used for testing is the human colon cancer cell line HCT116. Cells are cultured in RPMI-1640 with 10-15% fetal calf serum at a concentration of 10,000 cells per milliliter in a volume of 0.5 ml and kept at 37° C. in a 95% air/5%CO2 atmosphere. Phosphorothioate oligoribonucleotides are synthesized on an Applied Biosystems Model 380B DNA synthesizer using phosphoroamidite chemistry. A sequence of 24 bases complementary to the nucleotides at position 1 to 24 of SEQ ID NO: 1 is used as the test oligonucleotide. As a control, another (random) sequence is used: 5'-[NT] ID NO:23). Following assembly and deprotection, oligonucleotides are ethanol-precipitated twice, dried, and suspended in phosphate buffered saline at the desired concentration. Purity of the oligonucleotides is tested by capillary gel electrophoresis and ion exchange HPLC. The purified oligonucleotides are added to the culture medium at a concentration of 10 μM once per day for seven days. […] This effect is not observed with the control oligonucleotide. After 3 to 7 days, the number of cells in the cultures is counted using an automatic cell counter. The number of cells in cultures treated with the test oligonucleotide (expressed as 100%) is compared with the number of cells in cultures treated with the control oligonucleotide.

[2] = system: histone deacetylase (SEQ ID NO:2); assay: Histone deacetylase assay with nuclear extract of recombinant HEK293 cells (3H-acetylated chicken core histones); format: biochemical, human; conditions: TSA 1 μM; 30° C. for 90 minutes; released radioactivity
Description: Carboxy-terminal myc tagged histone deacetylase (SEQ ID NO:2) was cloned into a pcDNA3.1 vector and transfected into HEK293 cells. Recombinant clones were isolated and analyzed for histone deacetylase (HDAC) activity using the following procedure. Eight million recombinant or control cells were rinsed in 10 ml. of cold PBS, scraped, and spun at 500× g for 5 minutes. The cell pellet was rinsed with cold PBS and transferred to an Eppendorf tube. Nuclei were prepared by lysing the cells in 1 ml of Buffer A (10 mM HEPES, pH 7.5, 10 mM KCl, 1.5mM MgCl2, 0.5% NP40 and a cocktail of protease inhibitors without EDTA) on ice for 30 minutes. The lysate was spun at 1500× g for 5 minutes, then the supernatant was discarded. The pellet was washed in Buffer A without NP40. The nuclear pellet was sonicated three times for 5 seconds each on ice in 0.5 ml of 20 mM HEPES pH7.5, 1.5mM MgCl2, 10% glycerol and a cocktail of protease inhibitors without EDTA. The nuclear lysate was spun at 100,000× g for 30 min. Fifty μl aliquots of supernantant were stored at −80° C.
A HDAC assay was carried out in 100 μL of 25mM HEPES pH 7.5 buffer containing 0.1 mg/ml BSA, 1 mM MgCl2, 0.005% Triton X-100, ^3H-acetylated chicken core histones, and varying (0.5 to 4 μg) amounts of nuclear extracts at 30° C. for 90 minutes. […] Released radioactivity was counted as a measure of HDAC activity. […]

Compound	expression of human histone deacetylase as determined by Western blotting [1]	inhibition of HDAC activity of recombinant nuclear extract [2]
control oligonucleotide: Control (random) sequence: 5′-TCAACTGACTAGATGTACATGGAC-5′ (SEQ ID NO:23) (TCAACTGACTAGATGTACATGGAC; listed as DNA, chemistry not fully specified)	not observed	
CC(/C=C/C(=O)NO)=C\[C@@H](C)C(=O)c1ccc(N(C)C)cc1 [TSA, Trichostatin A]		inhibited
